Reference: patent US11022604B2, “Dock derived compound against laminin receptor (37 LR) and uses thereof” (Purdue Research Foundation, priority 2017, dated 2021)
Like-named read-outs stand apart in the source and are kept apart here.

Test system: PC-3 cells
Experiment: BrdU incorporation assay
Type: cell-based
Details: read-out: IC50, inhibition of BrdU incorporation (proliferation)
Protocol: PC-3 cells were treated with 100 nM to 100 μM C3 for 24 hours and BrdU incorporation was quantified using HRP generated luminescence from an antibody pair recognizing BrdU (n=6, mean±SEM). C3 BrdU signal was normalized to a row where PC-3 cells were exposed to 0.5% DMSO (assay conditions). Curve obtained using GraphPAd Prism as described in the methods.
Cell Viability Screen. PC-3, Endo, TC2-Ras, SH-SY5Y, and LNCaP cells were seeded in 96-well plates at 1,500 cells per well using the Scepter cell counter (EMD Millipore). Cells were continuously incubated with compound using a 6-point dose curve: 100, 57.5, 32.4, 18.6, 10.5, and 6.0 μM in their respective complete media. Cell viability was measured by using the cell counting kit-8 (CCK-8, Dojindo). […] CCK-8 absorbance was measured at 450 nm using a GloMax Multimode Reader (Promega). Readings were performed the day after seeding to normalize for variations in cell seeding and after 96 hours of compound treatment. After each reading, CCK-8 media was removed and replaced with media containing compound as described previously. […] As described previously, an initial baseline CCK-8 reading was performed at 24 hours post seeding to correct for variations in seeding density. First, 450 nm values for each well were subtracted from media only readings to correct for baseline absorbance. […]

`O=C(c1cc(F)cc2c1OCOC2)N1CCN(C2c3ccccc3-c3ccccc32)CC1` [Compound C3, [4-(9h-fluoren-9-yl)piperazino](6-fluoro-4h-1,3-benzodioxin-8-yl)methanone] gave an IC50 (24 hours) of 10 µM and an IC50 (Homo sapiens, PC-3, 24 h) of 10.1 µM.
